Measured values published in patent publication US20260091103A1, “NOVEL COMPOSITIONS COMPRISING TERPENOID AND MACROMOLECULE, AND USES THEREOF” (Powin Biomedical Co., Ltd., priority 2022, published 2026).
“Also recorded” adds a separate entry of the source.

Legend:
macrophages (CD11b+) = experiment: Antigen-presenting cell recruitment in injected quadriceps muscle: macrophages (flow cytometry); type: in vivo, BALB/c mice; conditions: 50 μL i.m. into right quadriceps, versus vehicle-injected left quadriceps
Method: (§1) 15 BALB/c mice were randomly assigned into 5 groups (three mice per group), which were Paraffin oil@HACH group, Squalane@HACH group, Squalene@HACH group, Ocimene@HACH group, and Farnesene@HACH group.
(§2) 50 μL of the composition comprising Paraffin oil@HACH particles, composition comprising Squalane@HACH particles, composition comprising Squalene@HACH particles, composition comprising Ocimene@HACH particles, or composition comprising Farnesene@HACH particles (the test samples in this experiment) was injected intramuscularly into the right quadriceps of mice in the Paraffin oil@HACH group, Squalane@HACH group, Squalene@HACH group, Ocimene@HACH group, and Farnesene@HACH group, respectively; and 50 μL of sodium citrate buffer (pH=6.5) (the vehicle control in this experiment) was injected intramuscularly into the left quadriceps of mice in these groups to monitor the effect induced by the injection on each mouse.
(§3) The mice in each group were sacrificed at 5th day after injection.
(§4) The left quadriceps muscles and the right quadriceps muscles of each mouse were harvested respectively. The tendons were removed, and muscles were digested with 3 mL of phosphate buffered saline (PBS) containing 0.05% (w/v) type II collagenase, 10 μg/mL of DNase I, and 0.5% BSA at 37° C. for 40 min. The muscle digestion was quenched by the addition of excess medium; and then the cell suspension was collected by centrifugation at 1200 rpm for 5 min, resuspended in PBS, and filtered through a 70-μm nylon mesh (BD-Biosciences).
The degree of macrophage cell (CD11b^+) recruitment in each mouse was assessed according to the following formula (VII): […]
(§5) The experimental procedure was roughly the same as that described in Experiment 1-4. The only differences were the compositions administered to the mice.
(§6) Cholesterol group: 50 μL of the N-methyl-2-pyrrolidone (NMP) solution comprising cholesterol (0.25 mg/mL) (the test sample in this group) was injected intramuscularly into the right quadriceps of mice; and 50 μL of N-methyl-2-pyrrolidone solution (the vehicle control in this group) was injected intramuscularly into the left quadriceps of mice to monitor the effect induced by the injection on each mouse.
(§7) Squalene group: 50 μL of the N-methyl-2-pyrrolidone (NMP) solution comprising squalene (50 μL/mL) (the test sample in this group) was injected intramuscularly into the right quadriceps of mice; and 50 μL of N-methyl-2-pyrrolidone solution (the vehicle control in this group) was injected intramuscularly into the left quadriceps of mice to monitor the effect induced by the injection on each mouse.

dendritic cells (CD11c+) = experiment: Antigen-presenting cell recruitment in injected quadriceps muscle: dendritic cells (flow cytometry); type: in vivo, BALB/c mice; conditions: 50 μL i.m. into right quadriceps, versus vehicle-injected left quadriceps
Method: as §1, §2, §3, §4
The degree of dendritic cell (CD11c^+) recruitment in each mouse was assessed according to the following formula (VI): […]
as §5, §6, §7

[1] = Condition suitable for self-assembly of Squalene@HACH particles (appearance of 28 compositions); type: physicochemical; conditions: by together forming squalene@HACH particles
Method: In this experiment, the condition suitable for self-assembly of Squalene@HACH particles was assessed and shown in a Ternary diagram.
There were 28 groups in this experiment, that is, the first to the 28th group. The preparation procedure of the compositions in each group was roughly the same as the experimental procedure of Composition comprising Squalene@HACH particles described in Experiment 1-1-4. The only differences were the weight of squalene, the weight of HACH, and the weight of sodium citrate solution (aqueous buffer solution).
Squalene@HACH particles in the compositions were detected and analyzed by dynamic light scattering, particle size analyzer, or transmission electron microscope. Moreover, please note that if the self-assembly of the Squalene@HACH particles occur in the composition, the composition would be a milk-like mixture solution (milk-like suspension).

CD4+ T cell = experiment: T cell immunity: CD4+ T cells in splenocytes of immunized mice (flow cytometry); conditions: splenocytes on day 28; i.m. on day 0 and day 14
Method: (§8) 12 BALB/c mice were randomly assigned into 4 groups (three mice per group), which were PBS group, WT1 group, WT1+IFN-alpha-based adjuvant group, and WT1+Squalene@HACH group.
(§9) PBS group: 50 μL of the phosphate buffered saline was injected intramuscularly into both of the left and right quadriceps of mice on day 0 and day 14.
(§10) WT1 group: 50 μL of the sodium citrate solution comprising 25 μL of WT1 protein was injected intramuscularly into both of the left and right quadriceps of mice on day 0 and day 14. […]
(§11) The splenocytes were isolated by the following procedure: the spleen was gently pressed with the plunger seal of a 5-mL syringe on a 70-μm cell strainer into a 50-mL tube and washed through a cell strainer with RPMI 1640 containing 10% (v/v) FBS. […] The cell solution was counted and diluted to the desired cell concentrations.
(§12) The cell suspensions obtained from the spleen of mice in each group were respectively mixed with a medium containing titrated fluorescent conjugates of monoclonal antibodies CD8a-Alexa Fluor 647 (BD Pharmingen), and CD4-FITC (Thermo Fisher). […] Finally, the stained cells were washed with staining buffer and analyzed by BD Accuri™ C6 flow cytometer.

4T1 cells = experiment: Anti-tumor activity in 4T1 breast cancer mouse model; type: in vivo, BALB/c mice; set-up: key to Survival Status on Day 53: Dead means that the mouse died because of the tumor; Dead * means that the mouse died from attack by other mice
Method: On Day 0, after the injection process as described above was completed, 0.05 mL of the phosphate buffered saline (PBS) comprising 4T1 cells (2×10^6 cells/mL; 4T1 cell is abreast cancer cell line) was injected subcutaneously into the abdominal mammary fat pad of the mice in each group, and the tumor volume and survival status of mice were initially monitored on this day (Day 0). Tumor volume was calculated by ½*(4*3.14/3)*(length/2)*(width/2)*height*1000, and the observation of the tumor volume and survival status was stopped if the mouse was defined as either death or paralysis or the tumor volume of the mouse exceeding 1000 mm^3.

CD8+ T cell = experiment: T cell immunity: CD8+ T cells in splenocytes of immunized mice (flow cytometry); conditions: splenocytes on day 28; i.m. on day 0 and day 14
Method: as §8, §9, §10, §11, §12

[2] = individual mouse, i.m. on Day −14 and Day 0, 4T1 cells s.c. on Day 0

Molecule	Macrophages (CD11b+) recruitment, in words (macrophages (CD11b+))	Dendritic cells (CD11c+) recruitment, in words (dendritic cells (CD11c+))	also measured
CC(C)=CCC/C(C)=C/CC/C(C)=C/CC/C=C(\C)CC/C=C(\C)CCC=C(C)C [squalene]	lack the ability to recruit	lack the ability to recruit	
CC(C)CCC[C@@H](C)[C@H]1CC[C@H]2[C@@H]3CC=C4C[C@@H](O)CC[C@]4(C)[C@H]3CC[C@]12C [cholesterol]	lack the ability to recruit	lack the ability to recruit	
CCCCCCCCCCCCCCCCCCN [ODA, octadecan-1-amine]	lack the ability to recruit	lack the ability to recruit	
hyaluronic acid-cholesterol conjugate [HACH]			Weight units of squalene coated by 1 weight unit of HACH [1]: 80 weight units
WT1: WT1 protein, targeted antigen, given alone in sodium citrate solution	lacks the ability to recruit	lacks the ability to recruit	CD4+ T cell (CD4+ T cell): 34.1%; Survival Status on Day 53 (4T1 cells; [2]): Dead; The day of the Tumor Growth (4T1 cells; [2]): Day 18; also recorded: Day 21; also recorded: Day 25; Mice died on Day 53 (4T1 cells; of 6 mice per group): 6 mice; Mice in which tumor developed (4T1 cells; of 6 mice per group): 6 mice; Tumor was initially developed between (4T1 cells; range over tumor-bearing mice of the group): 18 to 25 days; CD8+ T cell (CD8+ T cell): 27.5%
